Test results: the supplement of paper PMC4862054

Assays:
Settings in all cases: incubation time: 72 h
[1] = test system: MDA-MB-468; assay: normalised response (% of control), CellTox Green; higher = less cell death (100 = DMSO, 0 = benzethonium chloride kill control)
How it was run: (§1)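 Breast cancer cell lines (20 µl suspension) were seeded into 384-well plates holding compound at 5 concentrations in 10-fold steps over a compound-specific 10,000-fold range, then incubated 72 h. CellTox Green fluorescence (485/520 nm) was read first, then CellTiter-Glo luminescence after 10 min at room temperature. Each plate was normalised to 0.1 % DMSO (100) and a positive kill control (0). Each value is the normalised signal at a single concentration of the series.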

[2] = test system: MCF-10A; assay: as above
How it was run: as §1

[3] = test system: DU-4475; assay: as above
How it was run: as §1

[4] = test system: CAL-120; assay: as above
How it was run: as §1

[5] = test system: CAL-85-1; assay: as above
How it was run: as §1

[6] = test system: MDA-MB-436; assay: as above
How it was run: as §1

[7] = test system: CAL-51; assay: as above
How it was run: as §1

[8] = test system: HCC1143; assay: as above
How it was run: as §1

[9] = test system: HDQ-P1; assay: as above
How it was run: as §1

[10] = test system: HCC1599; assay: as above
How it was run: as §1

[11] = test system: HCC1937; assay: as above
How it was run: as §1

[12] = test system: MDA-MB-231; assay: as above
How it was run: as §1

[13] = test system: Hs578T; assay: as above
How it was run: as §1

[14] = test system: BT-474; assay: as above
How it was run: as §1

[15] = test system: BT-549; assay: as above
How it was run: as §1

[16] = test system: MDA-MB-453; assay: as above
How it was run: as §1

[17] = test system: MFM-223; assay: as above
How it was run: as §1

[18] = test system: MDA-MB-468; assay: normalised response (% of control), CellTiter-Glo; higher = more viable cells (100 = DMSO, 0 = benzethonium chloride kill control)
Protocol: (§2)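 DSRT, 72 h incubation, CellTox Green / CellTiter-Glo readout. Signal is normalised to DMSO and benzethonium chloride controls. Value is the normalised response at the highest dose.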

[19] = test system: MCF-10A; assay: as above
Protocol: as §2

[20] = test system: DU-4475; assay: as above
Protocol: as §2

[21] = test system: CAL-120; assay: as above
Protocol: as §2

[22] = test system: CAL-85-1; assay: as above
Protocol: as §2

[23] = test system: MDA-MB-436; assay: as above
Protocol: as §2

[24] = test system: CAL-51; assay: as above
Protocol: as §2

[25] = test system: CAL-148; assay: as above
Protocol: as §2

[26] = test system: HCC1143; assay: as above
Protocol: as §2

[27] = test system: HDQ-P1; assay: as above
Protocol: as §2

[28] = test system: SK-BR-3; assay: as above
Protocol: as §2

[29] = test system: HCC1599; assay: as above
Protocol: as §2

[30] = test system: HCC1937; assay: as above
Protocol: as §2

[31] = test system: MDA-MB-231; assay: as above
Protocol: as §2

[32] = test system: Hs578T; assay: as above
Protocol: as §2

[33] = test system: BT-474; assay: as above
Protocol: as §2

[34] = test system: BT-549; assay: as above
Protocol: as §2

[35] = test system: MDA-MB-453; assay: as above
Protocol: as §2

[36] = test system: MFM-223; assay: as above
Protocol: as §2

[37] = test system: CAL-148; assay: normalised response (% of control), CellTox Green; higher = less cell death (100 = DMSO, 0 = benzethonium chloride kill control)
How it was run: as §1

| Structure (SMILES) | normalised response [1] | normalised response [2] | normalised response [3] | normalised response [4] | normalised response [5] | normalised response [6] | normalised response [7] | normalised response [8] | normalised response [9] | normalised response [10] | normalised response [11] | normalised response [12] | normalised response [13] | normalised response [14] | normalised response [15] | normalised response [16] | normalised response [17] | normalised response [18] | normalised response [19] | normalised response [20] | normalised response [21] | normalised response [22] | normalised response [23] | normalised response [24] | normalised response [25] | normalised response [26] | normalised response [27] | normalised response [28] | normalised response [29] | normalised response [30] | normalised response [31] | normalised response [32] | normalised response [33] | normalised response [34] | normalised response [35] | normalised response [36] | normalised response [37] |
| --- | --- | --- | --- | --- | --- | --- | --- | --- | --- | --- | --- | --- | --- | --- | --- | --- | --- | --- | --- | --- | --- | --- | --- | --- | --- | --- | --- | --- | --- | --- | --- | --- | --- | --- | --- | --- | --- |
| Cc1c(C(=O)Nc2ccc(N3C[C@@H](C)O[C@@H](C)C3)nc2)cccc1-c1ccc(OC(F)(F)F)cc1 [Erismodegib] (10000 nM) | 171% | 101% | 108% | 101% | 85.3% | 79% | 99.8% | 109% | 111% | 118% | 122% | 107% | 80.5% | 93% | 130% | 63.9% | 105% | 74.7% | 92% | 99.6% | 97.6% | 91.8% | 78.6% | 102% | 100% | 89.4% | 85.3% | 81% | 91.1% | 90.2% | 79% | 94.8% | 73.5% | 81.8% | 75.5% | 80.8% | – |
| CC[C@H](CC#N)OC(=O)N[C@@H](C)c1cccc(NC(=O)Nc2ccc(-c3cnco3)c(OC)c2)c1 [AVN944] (10000 nM) | 124% | 85.2% | 89.2% | 102% | 101% | 97.9% | 78.9% | 105% | 94.6% | 97.1% | 96.6% | 110% | 48% | 96.4% | 88.5% | 107% | 100% | 30% | 58.9% | 15.7% | 50.6% | 38.4% | 38.1% | 19% | 41.4% | 31.5% | 42.3% | 37.1% | 33.4% | 42.2% | 47% | 35.4% | 48.8% | 27% | 62.3% | 49.7% | 67.1% |
| COc1cc2c(cc1-c1c(C)noc1C)ncc1[nH]c(=O)n([C@H](C)c3ccccn3)c12 [I-BET151] (10000 nM) | -18.1% | 28.1% | 81.2% | 76.1% | 48.9% | 35.5% | 47.1% | 104% | 72.8% | 93.5% | 66.3% | 45.2% | 112% | 95.2% | 81.8% | 98.5% | 104% | 50.6% | 54.5% | 53.3% | 64% | 30.7% | 75.6% | 59.5% | 71.7% | 59.3% | 67% | 53% | 67.6% | 72.2% | 62.5% | 35% | 59.3% | 38.5% | 21.8% | 49.9% | 72.4% |
| CCCc1cc(C)[nH]c(=O)c1CNC(=O)c1cc(-c2ccnc(N3CCN(C)CC3)c2)cc2c1cnn2C(C)C [GSK343] (10000 nM) | 114% | 90.1% | 92.7% | 78.5% | 56.8% | 95.2% | 106% | 68.4% | 80% | 73.6% | 101% | -68.4% | 79.2% | 4.03% | 97.6% | -8.4% | 77.3% | 11.1% | 97.5% | 77.8% | 79.4% | 30.2% | 53.9% | 120% | 62.8% | 68.9% | 66.7% | 11.3% | 22.8% | 100% | 7.92% | 74.4% | 11.3% | 77.1% | 13.7% | 41.8% | 85.5% |
| CC(C)(C)Cn1c(N)nc2ccc(-c3[nH]c(C(C)(C)C)nc3-c3ccc(F)cc3)nc21 (10000 nM) | 107% | 89.3% | 95.7% | 93.6% | 41.5% | 71.1% | 104% | 87.1% | 100% | 85.6% | 92.4% | 47.1% | – | 89.8% | 90.9% | 93.9% | 86.6% | 37% | 43.6% | 99.4% | 89.3% | 64.9% | 82.1% | 104% | 94.7% | 86.1% | 70.7% | 62.7% | 78.1% | 65.3% | 67.2% | 94.1% | 66.4% | 76.4% | 77.3% | 63.7% | 98.9% |
